Laboratory results as given in the supplement of paper PMC8633005.

Tests used:
Experiment in all cases: drug sensitivity score (DSS) (DSS (unitless, 0-50 scale)); higher = more sensitive (stronger viability inhibition); extreme values may be limits of the assay
Conditions in all cases: 72 h; culture: 2D
WM165 = tested on: WM165
Outline: (§1)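 Viability was measured by CellTiter-Glo luminescence after 72 h at 37 °C in 384-well plates holding a 527-compound oncology library, with patient-derived melanoma cultures (1000–1500 cells per well) and melanoma cell lines grown in 2D. Every compound was tested at five concentrations spanning a 10,000-fold range. The drug sensitivity score, a modified area under the curve, came from dose-response curves fitted with in-house Breeze software.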

FM-MEL-3 = tested on: FM-MEL-3
Outline: as §1

SK-MEL-2 = tested on: SK-MEL-2
Outline: as §1

WM852 = tested on: WM852
Outline: as §1

SK-MEL-28 = tested on: SK-MEL-28
Outline: as §1

FM-MEL-2 = tested on: FM-MEL-2
Outline: as §1

Bowes = tested on: Bowes
Outline: as §1

FM-MEL-6 = tested on: FM-MEL-6
Outline: as §1

| Compound | drug sensitivity score (WM165) | drug sensitivity score (FM-MEL-3) | drug sensitivity score (SK-MEL-2) | drug sensitivity score (WM852) | drug sensitivity score (SK-MEL-28) | drug sensitivity score (FM-MEL-2) | drug sensitivity score (Bowes) | drug sensitivity score (FM-MEL-6) |
| --- | --- | --- | --- | --- | --- | --- | --- | --- |
| O=C(O)c1ccc(CN2CCC(CN[C@@H]3C[C@H]3c3ccccc3)CC2)cc1 | 0 | 0 | 0 | 0 | 0 | 0 | 0 | 0 |
| Cc1cc2c(C(=O)NC[C@H](C)c3ccccc3)c(O)c(O)cc2c(O)c1-c1c(C)cc2c(C(=O)NC[C@H](C)c3ccccc3)c(O)c(O)cc2c1O [Sabutoclax] | 24.6 | 0.4 | 9.2 | 18 | 11.1 | 13 | 27.6 | 5.6 |
| CN1CCN(c2ccc3nc(-c4c(N)c5c(F)cccc5[nH]c4=O)[nH]c3c2)CC1 [Dovitinib] | 0.3 | 0 | 0 | 0 | 0 | 0 | 0.5 | 0 |
| CCNC(=O)CCC/C=C\C[C@@H]1[C@@H](/C=C/[C@@H](O)CCc2ccccc2)[C@H](O)C[C@@H]1O [Bimatoprost] | 0 | 0 | 0 | 0 | 0 | 0 | 0 | 0 |
| CC(C)Cn1cnc2c(N)nc3ccccc3c21 [Imiquimod] | 0 | 0 | 0 | 0.1 | 0 | 0 | 4.7 | 0 |
| CC(C)[C@H]1C(=O)N[C@@H](CCCNC(=N)N)C(=O)NCC(=O)N[C@@H](CC(=O)O)C(=O)N[C@H](Cc2ccccc2)C(=O)N1C [Cilengitide] | 0 | 0 | 0 | 2.5 | 2 | 0.7 | 0 | 1 |
| COc1cc2ncnc(Nc3ccc(F)c(Cl)c3)c2cc1NC(=O)/C=C/CN1CCCCC1 [Dacomitinib] | 0 | 1 | 0 | 0.3 | 0 | 0.4 | 4.1 | 0.4 |
| CC(C)n1cnc2c(NCCc3ccc(O)cc3)nc(-c3csc4ccccc34)nc21 [StemRegenin 1] | 2.5 | 3.4 | 0 | 1.3 | 0 | 1.5 | 1.1 | 3.6 |
| CNC(=O)c1cc(COc2nnc(Nc3ccc(Cl)cc3)c3ccoc23)ccn1 [Telatinib] | 0 | 0 | 0 | 0.3 | 0 | 0 | 0 | 0.1 |
| O=C(/C=C/c1cccnc1)NCCCCC1CCN(C(=O)c2ccccc2)CC1 [Daporinad] | 17.5 | 14.5 | 11.3 | 27.1 | 16.8 | 16.6 | 32.7 | 10.3 |
| CC1(C)C(C(=O)Nc2ccc(S(=O)(=O)c3ccc(NC(=O)C4C(C)(C)C4(C)C)cc3)cc2)C1(C)C [BRD7116] | 0 | 0.6 | 0 | 0 | 0 | 2.1 | 0.1 | 0 |
| C[C@@H]1COC(Nc2ccc3ncnc(Nc4ccc(OCc5nccs5)c(Cl)c4)c3c2)=N1 [Varlitinib] | 0 | 2.2 | 0 | 1.7 | 0.3 | 5.7 | 0 | 0 |
| CS(=O)(=O)c1ccc(-c2cnc(N)c(C(=O)Nc3ccccc3)n2)cc1 [VE-821] | 0 | 1.6 | 0 | 2.6 | 0 | 0 | 3.1 | 0 |
| COCC[n+]1c2c(n(Cc3cnccn3)c1C)C(=O)c1ccccc1C2=O [Sepantronium bromide] | 43.2 | 41 | 36.2 | 35.2 | 34.4 | 21.9 | 34.6 | 22.3 |
| Cc1[nH]c2ccccc2c1CCNCc1ccc(/C=C/C(=O)NO)cc1 [Panobinostat] | 19.6 | 14.9 | 16.8 | 9.3 | 12.9 | 16.2 | 10.1 | 12.1 |
| C/C=C1\NC(=O)[C@H]2CSSCC/C=C/[C@H](CC(=O)N[C@H](C(C)C)C(=O)N2)OC(=O)[C@H](C(C)C)NC1=O [Romidepsin] | 30 | 29.7 | 30.4 | 17.9 | 29 | 28.1 | 18.6 | 26.5 |
| NCCNc1ccc(NCCN)c2c1C(=O)c1ccncc1C2=O [Pixantrone] | 0.7 | 0 | 0 | 1.3 | 0 | 0 | 4.8 | 0.8 |
| Cc1c(-c2c(-c3ccc(F)o3)sc3ncnc(O[C@H](Cc4ccccc4OCc4ccnn4CC(F)(F)F)C(=O)O)c23)ccc(OCCN2CCN(C)CC2)c1Cl | 0 | 8.7 | 5.3 | 0 | 0 | 3.2 | 16.9 | 1.9 |
| CN(C)CCCOc1ccc(-c2ccc3ncc4c(c3c2)n(C2CCOCC2)c(=O)n4C)cn1 [AZD0156] | 0.3 | 0 | 0 | 0 | 0 | 0.4 | 0 | 0 |
| O=C(NCc1ccncc1)C12CC3CC(C1)CC(c1ccc(Cl)cc1)(C3)C2 | 6.1 | 7.6 | 2 | 4.3 | 2.6 | 2 | 5.2 | 1.2 |
| COC(=O)N[C@@H](C)CNc1nccc(-c2cn(C(C)C)nc2-c2cc(Cl)cc(NS(C)(=O)=O)c2F)n1 [Encorafenib] | 19.2 | 1.9 | 1.1 | 1.4 | 19.6 | 1.3 | 0.5 | 0 |

| Compound | drug sensitivity score (WM165) | drug sensitivity score (FM-MEL-3) | drug sensitivity score (SK-MEL-2) | drug sensitivity score (WM852) | drug sensitivity score (SK-MEL-28) | drug sensitivity score (FM-MEL-2) | drug sensitivity score (Bowes) | drug sensitivity score (FM-MEL-6) |
| --- | --- | --- | --- | --- | --- | --- | --- | --- |
| C=C(c1ccc(C(=O)O)cc1)c1cc2c(cc1C)C(C)(C)CCC2(C)C [Bexarotene] | 0 | 2.9 | 0 | 0 | 2.3 | 1.3 | 0 | 0.4 |
| Cc1cnc(Nc2ccc(OCCN3CCCC3)cc2)nc1Nc1cccc(S(=O)(=O)NC(C)(C)C)c1 [Fedratinib] | 9.1 | 6.7 | 4.5 | 6.8 | 3 | 3.6 | 10.9 | 3.1 |
| Cc1nc(=O)c2cc(CN(C)c3ccc(C(=O)N[C@@H](CCC(=O)O)C(=O)O)s3)ccc2[nH]1 [Raltitrexed] | 8.4 | 0 | 0 | 0 | 3.9 | 0 | 23.9 | 0 |
| CCCCCCCCCCCCCCCCCCOP(=O)([O-])OC1CC[N+](C)(C)CC1 [Perifosine] | 0 | 0.4 | 0 | 0 | 0 | 0.2 | 0 | 0 |
| N#Cc1ccnc(N2C(=O)CC[C@H]2C(=O)N(c2cncc(F)c2)[C@H](C(=O)NC2CC(F)(F)C2)c2ccccc2Cl)c1 [Ivosidenib] | 0 | 0 | 0 | 0 | 0 | 0 | 0 | 0.3 |
| NC(=O)c1cccc2cn(-c3ccc([C@@H]4CCCNC4)cc3)nc12 [Niraparib] | 6.9 | 0 | 0 | 0 | 0 | 1.4 | 0 | 0 |
| CN(C)C(=O)c1cc2cnc(Nc3ccc(N4CCNCC4)cn3)nc2n1C1CCCC1 [Ribociclib] | 2.8 | 2.3 | 0 | 0.7 | 5.4 | 4.3 | 0 | 1.6 |
| Nc1nc(N)c2nc(-c3cccc(O)c3)c(-c3cccc(O)c3)nc2n1 [TG100-115] | 0 | 0 | 0 | 0 | 0 | 1.8 | 2.9 | 1 |
| Cn1cncc1[C@@](N)(c1ccc(Cl)cc1)c1ccc2c(c1)c(-c1cccc(Cl)c1)cc(=O)n2C [Tipifarnib] | 10.4 | 11.2 | 3.6 | 3.4 | 5 | 7.4 | 21.1 | 6.2 |
| CCCN(CCC)C(=O)C1=Cc2ccc(-c3ccc(C(=O)N4CCCC4)cc3)cc2N=C(N)C1 [Motolimod] | 0 | 1.1 | 0 | 2.8 | 0 | 0.5 | 1.6 | 1.3 |
| CCC1=C[C@@H]2CN(C1)Cc1c([nH]c3ccccc13)[C@@](C(=O)OC)(c1cc3c(cc1OC)N(C)[C@H]1[C@@](O)(C(=O)OC)[C@H](OC(C)=O)[C@]4(CC)C=CCN5CC[C@]31[C@@H]54)C2 [Vinorelbine] | 28.8 | 12.5 | 25.6 | 23.1 | 11 | 7.7 | 31.6 | 23.3 |
| O=C1CCC(N2C(=O)c3ccccc3C2=O)C(=O)N1 (stereo unspecified) [Thalidomide] | 0 | 0 | 0 | 0 | 0 | 0 | 0 | 0 |
| Cc1cc(Nc2cc(N3CCN(C)CC3)nc(Sc3ccc(NC(=O)C4CC4)cc3)n2)n[nH]1 [Tozasertib] | 12.8 | 4.5 | 2.8 | 3.5 | 5.1 | 1.9 | 11.7 | 2.7 |
| Cc1ccc(C(=O)Nc2ccc(CN3CCN(C)CC3)c(C(F)(F)F)c2)cc1C#Cc1cnc2cccnn12 [Ponatinib] | 8.3 | 9.1 | 4.4 | 6.2 | 4.9 | 7.8 | 9.1 | 4.5 |
| CCCCOc1nc(N)c2c(n1)N(Cc1cccc(CN3CCCC3)c1)CC(=O)N2 [Vesatolimod] | 0 | 0 | 0 | 0 | 0 | 0 | 0 | 0.8 |
| O=C(O)CCCCC(CCSCc1ccccc1)SCc1ccccc1 (stereo unspecified) [CPI-613] | 0 | 0 | 0 | 0 | 0 | 0 | 0 | 0 |
| CC(C)C[C@H](NC(=O)[C@H](Cc1ccccc1)NC(=O)c1cnccn1)B(O)O [Bortezomib] | 27 | 28.4 | 26.5 | 11.8 | 27.3 | 14.1 | 24.9 | 29 |
| O=C(NOC[C@H](O)CO)c1ccc(F)c(F)c1Nc1ccc(I)cc1F | 18.6 | 26.8 | 11.1 | 3.8 | 18 | 14.5 | 0.5 | 11.4 |
| CCn1c(C(=O)N(C2CC2)C2CC2)cc2c3c(ncn3C)c(Nc3cc(C)n(C)n3)nc21 | 0 | 0 | 0 | 0 | 0.4 | 2.3 | 0 | 0.8 |
| Cc1cc(C(C)Nc2ccccc2)c2nc(N3CCOCC3)cc(=O)n2c1 (stereo unspecified) [TGX-221] | 0.1 | 1.1 | 0 | 1.2 | 3.3 | 2.2 | 0.6 | 0.9 |
| CN1CCN(c2ccc(C(=O)Nc3n[nH]c4ccc(Cc5cc(F)cc(F)c5)cc34)c(NC3CCOCC3)c2)CC1 [Entrectinib] | 0 | 0 | 0 | 0 | 0 | 0 | 0 | 0 |
